Results: the RepoRT retention time repository

Assay: RP, Waters ACQUITY UPLC BEH C8, 100 × 2.1 mm, 1.7 µm, 55 °C, 0.6 mL/min, estimated dead time 0.37 min; A: 50% water + 25% acetonitrile + 25% isopropanol + 0.05% acetic acid + 20 µM phosphoric acid + 5 mM ammonium acetate; B: 50% acetonitrile + 50% isopropanol + 0.05% acetic acid + 5 mM ammonium acetate; gradient (min/%B) 0/1 0.1/1 2/30 11.5/90 12/99.9 12.5/99.9 12.55/65 12.65/30 12.75/1 12.95/1 13.25/1
Conditions: stereoisomer not certain

SMILES | LC retention time
CC1=CCCC(C)(C)C1/C=C/C(C)=C/C=C/C(C)=C/C=C/C=C(C)/C=C/C=C(C)/C=C/C1=C(C)CCCC1(C)C (stereo not drawn) [Alpha-carotene] | 8.56 min
C=C1C=CCC(C)(C)C1C=CC(C)=CC=CC(C)=CC=CC=C(C)C=CC=C(C)C=CC1=C(C)CC(O)CC1(C)C (configuration not stated) [Anhydrolutein I] | 5.77 min
CCCCCCCCCCCCCCCCCCCC(=O)OC(CC(=O)[O-])C[N+](C)(C)C (configuration not stated) [Arachidyl carnitine CAR(20:0)] | 2.88 min
CC1=C(/C=C/C(C)=C/C=C/C(C)=C/C=C/C=C(C)/C=C/C=C(C)/C=C/C2=C(C)CCCC2(C)C)C(C)(C)CCC1 [Beta-carotene] | 8.56 min
CC(C=CC=C(C)C=CC1=C(C)CCCC1(C)C)=CC=CC=C(C)C=CC=C(C)C=CC1=C(C)CC(O)CC1(C)C (stereo not drawn) [Beta-cryptoxanthin] | 6.41 min
CCCCCCCCCCCC=CC(O)C(CO)NC(=O)CCCCCCCCCCCCCCCCCCC (configuration not stated) [Cer(d16:1/20:0)] | 7.27 min
CCCCCCCCCCCC=CC(O)C(CO)NC(=O)CCCCCCCCCCCCCCCCCCCCC (configuration not stated) [Cer(d16:1/22:0)] | 7.93 min
CCCCCCCCCCCC=CC(O)C(CO)NC(=O)CCCCCCCCCCCCCCCCCCCCCCC (configuration not stated) [Cer(d16:1/24:0)] | 8.54 min
CCCCCCCCCCCCCCCCCCCCCC(=O)NC(CO)C(O)CCCCCCCCCCCCCCC (configuration not stated) [Cer(d18:0/22:0)] | 8.61 min
CCCCCCCCCCCCCCCCCCCCCCCC(=O)NC(CO)C(O)CCCCCCCCCCCCCCC (configuration not stated) [Cer(d18:0/24:0)] | 9.14 min
CCCCCCCCCCCCCC=CC(O)C(CO)NC(=O)CCCCCCCCCCCCCCC (configuration not stated) [Cer(d18:1/16:0)] | 6.5 min
CCCCCCCCCCCCCC=CC(O)C(CO)NC(=O)CCCCCCCCCCCCCCCCC (configuration not stated) [Cer(d18:1/18:0)] | 7.19 min
CCCCCCCCCCCCCC=CC(O)C(CO)NC(=O)CCCCCCCCCCCCCCCCCCC (configuration not stated) [Cer(d18:1/20:0)] | 7.86 min
CCCCCCCCCCCCCC=CC(O)C(CO)NC(=O)CCCCCCCCCCCCCCCCCCCCC (configuration not stated) [Cer(d18:1/22:0)] | 8.46 min
CCCCCCCCCCCCCC=CC(O)C(CO)NC(=O)CCCCCCCCCCCCCCCCCCCCCCC (configuration not stated) [Cer(d18:1/24:0)] | 9 min
CCCCCCCCCCCCCC=CC(O)C(CO)NC(=O)CCCCCCCCCCCCCCCCCCCCCCCC (configuration not stated) [Cer(d18:1/25:0)] | 9.26 min
CC(C)CCCC(C)C1CCC2C3CC=C4CC(O)CCC4(C)C3CCC12C (configuration not stated) [Cholesterol] | 4.54 min

SMILES | LC retention time
CCCCCCCCCCCCCCCC(=O)OCC(CO)OC(=O)CCCCCCCCCCCCCCC (configuration not stated) [DG(16:0/16:0)] | 7.6 min
CCCCCCCCCCCCCCCCCC(=O)OCC(CO)OC(=O)CCCCCCCCCCCCCCC (configuration not stated) [DG(18:0/16:0)] | 8.19 min
CCCCCCCCCC(=O)OC(CC(=O)[O-])C[N+](C)(C)C (configuration not stated) [Decanoylcarnitine CAR(10:0)] | 0.609 min
Cc1cc(O)cc2c1OC(C)(CCCC(C)CCCC(C)CCCC(C)C)CC2 (configuration not stated) [Delta-Tocopherol] | 5.02 min
CC(C)=CCCC(C)=CC=CC(C)=CC=CC(C)=CC=CC=C(C)C=CC=C(C)C=CC1=C(C)CCCC1(C)C [Gamma-carotene] | 8.22 min
CCCCCCCCCCCCCCCCCCCCCCCCCC(=O)OC(CC(=O)[O-])C[N+](C)(C)C (configuration not stated) [Hexacosanoylcarnitine CAR(26:0)] | 5.15 min
CCCCCCCCCCCCCCCC(=O)OCC(O)COP(=O)(O)O (configuration not stated) [LPA(16:0/0:0)] | 1.58 min
CCCCCCCCCCCCCC(=O)OC(CO)COP(=O)([O-])OCC[N+](C)(C)C (configuration not stated) [LPC(0:0/14:0)] | 1.27 min
CCCCCCCCCCCCCCCC(=O)OC(CO)COP(=O)([O-])OCC[N+](C)(C)C (configuration not stated) [LPC(0:0/16:0)] | 1.75 min
CCCCCCCCCCCCCCCCCC(=O)OC(CO)COP(=O)([O-])OCC[N+](C)(C)C (configuration not stated) [LPC(0:0/18:0)] | 2.3 min
CCCCCCCCCCCCCC(=O)OCC(O)COP(=O)([O-])OCC[N+](C)(C)C (configuration not stated) [LPC(14:0/0:0)] | 1.36 min
CCCCCCCCCCCCCCCCCC(=O)OCC(O)COP(=O)([O-])OCC[N+](C)(C)C (configuration not stated) [LPC(18:0/0:0)] | 2.42 min
CCCCCCCCCCCCCCCCCCCC(=O)OCC(O)COP(=O)([O-])OCC[N+](C)(C)C (configuration not stated) [LPC(20:0/0:0)] | 3.02 min
CCCCCCCCCCCCCCCCCCCCCC(=O)OCC(O)COP(=O)([O-])OCC[N+](C)(C)C (configuration not stated) [LPC(22:0/0:0)] | 3.73 min
CCCCCCCCCCCCCCCCOCC(O)COP(=O)([O-])OCC[N+](C)(C)C (configuration not stated) [LPC(O-16:0/0:0)] | 2.09 min
CCCCCCCCCCCCCCC=COCC(O)COP(=O)([O-])OCC[N+](C)(C)C (configuration not stated) [LPC(P-16:0/0:0)] | 2.09 min
CCCCCCCCCCCCCCCCC=COCC(O)COP(=O)(O)OCCN (configuration not stated) [LPE(P-18:0/0:0)] | 2.75 min

Continued, values first:

LC retention time | SMILES
1.61 min | CCCCCCCCCCCCCCC(=O)OCC(O)COP(=O)([O-])OCC[N+](C)(C)C (configuration not stated) [LPC(15:0/0:0)]
1.87 min | CCCCCCCCCCCCCCCC(=O)OCC(O)COP(=O)([O-])OCC[N+](C)(C)C (configuration not stated) [LPC(16:0/0:0)]
2.14 min | CCCCCCCCCCCCCCCCC(=O)OCC(O)COP(=O)([O-])OCC[N+](C)(C)C (configuration not stated) [LPC(17:0/0:0)]
2.7 min | CCCCCCCCCCCCCCCCCCC(=O)OCC(O)COP(=O)([O-])OCC[N+](C)(C)C (configuration not stated) [LPC(19:0/0:0)]
4.52 min | CCCCCCCCCCCCCCCCCCCCCCCC(=O)OCC(O)COP(=O)([O-])OCC[N+](C)(C)C (configuration not stated) [LPC(24:0/0:0)]
2.66 min | CCCCCCCCCCCCCCCCCCOCC(O)COP(=O)([O-])OCC[N+](C)(C)C (configuration not stated) [LPC(O-18:0/0:0)]
3.31 min | CCCCCCCCCCCCCCCCCCCCOCC(O)COP(=O)([O-])OCC[N+](C)(C)C (configuration not stated) [LPC(O-20:0/0:0)]
2.65 min | CCCCCCCCCCCCCCCCC=COCC(O)COP(=O)([O-])OCC[N+](C)(C)C (configuration not stated) [LPC(P-18:0/0:0)]
2.38 min | CCCCCCCCCCCCCCCCCC(=O)OC(CO)COP(=O)(O)OCCN (configuration not stated) [LPE(0:0/18:0)]
1.93 min | CCCCCCCCCCCCCCCC(=O)OCC(O)COP(=O)(O)OCCN (configuration not stated) [LPE(16:0/0:0)]
2.48 min | CCCCCCCCCCCCCCCCCC(=O)OCC(O)COP(=O)(O)OCCN (configuration not stated) [LPE(18:0/0:0)]
5.75 min | CCCCCCCCCCCCCC=CC(O)C(COC1OC(CO)C(OC2OC(CO)C(O)C(O)C2O)C(O)C1O)NC(=O)CCCCCCCCCCCCCCC (configuration not stated) [LacCer(d18:1/16:0)]
7.86 min | CCCCCCCCCCCCCC=CC(O)C(COC1OC(CO)C(OC2OC(CO)C(O)C(O)C2O)C(O)C1O)NC(=O)CCCCCCCCCCCCCCCCCCCCC (configuration not stated) [LacCer(d18:1/22:0)]
8.4 min | CCCCCCCCCCCCCC=CC(O)C(COC1OC(CO)C(OC2OC(CO)C(O)C(O)C2O)C(O)C1O)NC(=O)CCCCCCCCCCCCCCCCCCCCCCC (configuration not stated) [LacCer(d18:1/24:0)]
0.876 min | CCCCCCCCCCCC(=O)OC(CC(=O)[O-])C[N+](C)(C)C (configuration not stated) [Lauroylcarnitine CAR(12:0)]
3.74 min | CC(C=CC=C(C)C=CC1=C(C)CC(O)CC1(C)C)=CC=CC=C(C)C=CC=C(C)C=CC1C(C)=CC(O)CC1(C)C (configuration not stated) [Luteine]
0.462 min | CCCCCCCC(=O)OC(CC(=O)O)C[N+](C)(C)C (configuration not stated) [Octanoylcarnitine CAR(8:0)]
5.97 min | CCCCCCCCCCCCCCCC(=O)OCC(COP(=O)([O-])OCC[N+](C)(C)C)OC(=O)CCCCCCCCCCCCCC (configuration not stated) [PC(16:0/15:0)]
